Test results as given in ChEMBL document CHEMBL1123690, “Redox chemistry of the 9-anilinoacridine class of antitumor agents” (J Med Chem, 1987).

test system: L1210; assay: Inhibitory concentration to reduce the growth of L1210 cells by 50% after 70 hr.; format: functional, cell-based; details: Mus musculus, L1210, 70 h

Compared with CC(=O)Nc1ccc(Nc2c3ccccc3nc3ccccc23)cc1, COC(=O)Nc1ccc(Nc2c3ccccc3nc3ccccc23)cc1 is 1.7-fold lower in IC50: 0.1 µM for the first, 0.06 µM for the second. The second is the more potent here.

Nc1ccc(Nc2c3ccccc3nc3ccccc23)cc1 and Oc1ccc(Nc2c3ccccc3nc3ccccc23)cc1 are within 1.5-fold of each other in IC50: 0.35 µM for the first, 0.25 µM for the second.

Going from CN(C)c1ccc(Nc2c3ccccc3nc3ccccc23)cc1 to CNc1ccc(Nc2c3ccccc3nc3ccccc23)cc1, the IC50 falls from 0.6 µM to 0.18 µM (3.3-fold).

Going from CCNc1ccc(Nc2c3ccccc3nc3ccccc23)cc1 to CS(=O)(=O)Nc1ccc(Nc2c3ccccc3nc3ccccc23)cc1, the IC50 falls from 0.25 µM to 0.035 µM (7.1-fold).

Going from O=S(=O)(Nc1ccc(Nc2c3ccccc3nc3ccccc23)cc1)c1ccccc1 to O=C(Nc1ccc(Nc2c3ccccc3nc3ccccc23)cc1)c1ccccc1, the IC50 rises from 0.0035 µM to 0.02 µM (5.7-fold).

For COP(=O)(Nc1ccc(Nc2c3ccccc3nc3ccccc23)cc1)OC, the IC50 was 0.015 µM.

test system: L1210; assay: Dose of the drug (mol /kg) providing a 50% life extension in L1210 assays when given at qd 1-5 schedule.; format: functional, Mus musculus; details: not given

With COP(=O)(Nc1ccc(Nc2c3ccccc3nc3ccccc23)cc1)OC the “Log 1/D50” value was 4.46.
